Test results taken from paper PMC11796312, “Multifunctional, Fluorene‐Based Modulator of Cholinergic and GABAergic Neurotransmission as a Novel Drug Candidate for Palliative Treatment of Alzheimer's Disease” (Angewandte Chemie (International Ed. in English), 2024).
Where “and” joins values, the source holds several entries; their conditions need not be identical. Equal entries are not always repeated. Entries after “also recorded” stand apart in the source; their conditions may differ. Where two headings read alike, the source gives them in different places.

Legend:
[1] = target: serotonin transporter (SERT) (Homo sapiens, UniProt P31645); test: Interaction with serotonin transporter
[2] = target: T1, mGAT4 (Mus musculus, UniProt P31650); test: [3H]GABA uptake assay, mGAT4; type: cell-based
T1 sequence (P31650 1-627): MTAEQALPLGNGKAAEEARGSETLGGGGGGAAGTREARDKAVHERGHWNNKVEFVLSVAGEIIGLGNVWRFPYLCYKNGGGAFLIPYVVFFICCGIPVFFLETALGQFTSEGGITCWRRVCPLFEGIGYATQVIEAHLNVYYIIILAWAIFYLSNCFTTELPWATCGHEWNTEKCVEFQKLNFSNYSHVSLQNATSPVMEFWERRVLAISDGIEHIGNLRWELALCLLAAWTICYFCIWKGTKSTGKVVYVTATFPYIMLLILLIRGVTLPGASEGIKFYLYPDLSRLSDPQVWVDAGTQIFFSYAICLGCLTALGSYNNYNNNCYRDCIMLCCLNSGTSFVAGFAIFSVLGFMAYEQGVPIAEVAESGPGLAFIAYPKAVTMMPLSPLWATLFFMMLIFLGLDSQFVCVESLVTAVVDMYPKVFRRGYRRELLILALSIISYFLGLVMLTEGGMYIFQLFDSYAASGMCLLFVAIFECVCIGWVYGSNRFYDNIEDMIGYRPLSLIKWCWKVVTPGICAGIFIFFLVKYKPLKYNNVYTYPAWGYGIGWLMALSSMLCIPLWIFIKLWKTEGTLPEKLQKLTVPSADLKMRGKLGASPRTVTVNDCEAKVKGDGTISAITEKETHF

[3] = Pharmacokinetic study after i.p. administration; type: in vivo; details: mice, 10 mg/kg i.p.
Description: Pharmacokinetic study after i.p. and i.g administration
mg/kg), blood samples were collected from mice under deep terminal anesthesia directly by cardiac puncture into heparinized 1.5 mL tubes at selected time intervals.
The samples were centrifuged at 3,000 × g for 10 min (10 °C), and the plasma samples were stored at -80 °C until the HPLC analysis.
The blood in brain vessels would interfere with the assay of actual brain tissue concentrations.
Therefore, the animals were perfused transcardially with saline solution (0.9% NaCl) for 5 min (10 mL/min). After perfusion, the skull was opened, and the brain was carefully removed and immediately stored at -80 °C until the HPLC analysis.
UHPLC-MS method for pharmacokinetics study
Ultra high-performance liquid chromatography system consisting of Ultimate 3000 RS pump Dionex (Thermo Scientific, San Jose, CA, USA) coupled with high-resolution mass spectrometer with orbitrap analyzer (Q Exactive Focus, Thermo Scientific, San Jose, CA, USA) was used in quantitative analyses of 6 in plasma and brain homogenate. According to the EMA[43] and FDA[42] guidelines on Bioanalytical method validation, the method was fully validated for plasma and partially for brain homogenate.
Before analysis, 50 μL of plasma or brain homogenate was precipitated with an internal
standard of 200 μL acetonitrile (ACN). The mixture was vortexed for 1 min at 1,500 rpm and
centrifuged at 12,074 g for 5 min at 20 °C. The supernatant was then transferred to an
injection vial and analyzed.
mm ID (Phenomenex, Torrance, CA, USA), protected with a guard column SecurityGuard
was performed in gradient elution mode with a flow rate of 0.6 mL/min and the following
composition of mobile phase: A) 0.1% FA in water (v/v) and B) 0.1% FA in ACN/MeOH in
The column was kept at 45 °C during
analysis. Samples were held at 10 °C in a light-tight autosampler unit.
Heated-Electrospray Ionization II interface (HESI-II) in positive ion mode was used with the
following settings: spray voltage; +3.5 kV, S-lens RF level; +70 V, capillary temperature 350
°C, auxiliary gas heater temperature; 350 °C, sheet, and auxiliary gas flow; 45 and 15
arbitrary units, respectively. Full MS mode was used at resolution (m/𝛥m) ̴70,000 for
Xcalibur software (v 4.0) was used for data evaluation.

[4] = system: mice treated with scopolamine; test: Barnes maze (BM) task; type: in vivo, C57BL/6J mice
Description: Animals and housing conditions
In all pharmacodynamic in vivo experiments, except for the Barnes maze (BM) task, adult male Albino Swiss (CD-1) mice weighing between 18 and 22 g and purchased from the Animal Breeding Farm of the Faculty of Pharmacy, Jagiellonian University Medical College were used. In BM task, C57BL/6J mice of the same weight (Animalab, Poland) were used.
Animals were housed in cages (10 mice per cage) at a constant temperature of 22 ± 2 °C, humidity of 55 ± 10%, and a light/dark (12:12) cycle (lights on at 7 AM). Before the experiments, the animals had unlimited access to food and water. Specified conditions for the maintenance of mice were ensured throughout the experiments, including tree bedding (Transwior, Poland) and cage enrichment (tunnels, nesting material, wooden igloos, etc.). For the behavioral test, the mice were selected randomly; each group consisted of 7-12 mice. The experiments were performed between 9 AM and 3 PM. After in vivo tests, the animals were […]
Ethical approval statement
The procedures for the maintenance and treatment of laboratory animals were approved by the 1st Local Ethics Committee of the Jagiellonian University in Krakow (Approvals No.
524/2021, 618/2022), and the treatment of animals was in full accordance with ethical […]
Drugs and dose selection for the in vivo tests
For in vivo assays 6 was suspended in 1% Tween 80 (Sigma Aldrich, Poland) and administered intraperitoneally (i.p.) 60 min before the acquisition trial of the passive avoidance (PA) task, BM task and 60 min before the forced swim test (FST), four-plate test (FPT) and elevated plus maze (EPM) test. Doses 10 mg/kg and 30 mg/kg were the starting […]
doses for behavioral assays. Lower doses were also assessed if at least one of them was […]
Scopolamine hydrobromide used at the dose of 1 mg/kg for the induction of learning and memory deficits was supplied by Sigma Aldrich (Poland). The dose of scopolamine was chosen based on our previous studies[44,45] and available literature data.[46] […]
Effect on spatial learning and memory – Barnes maze task
Spatial learning and memory in mice were also assessed using the BM task.[47] This task was performed with the BM apparatus (Panlab-Harvard Apparatus, Spain). It consists of a circular, dry, open platform surface equipped with 18 holes around the perimeter of the platform and a small dark recessed chamber located under one of them. Visual extra-maze cues (pictures of colored geometric figures with contrasting backgrounds placed at a distance of 1 m from the platform) were provided to facilitate learning. A weak aversive stimulus (light 600 lx) was applied to increase the animals’ motivation to escape from the circular platform.
The spatial acquisition trial was performed during the first 4 days of the experiment. On the first day of the test, an additional adaptation period preceded a proper trial. In this phase, mice were individually placed in a cylindrical black start chamber in the middle of the circular maze. Ten seconds later, the mouse was released from the start chamber, the light was turned on, and the animal was gently guided to the escape box (a small dark recessed chamber under the BM platform), where it remained for the next 2 min. This phase was not preceded by drug […]
In the spatial acquisition phase, each mouse was subjected to four trials daily, keeping 15-min intervals between each trial. […]

[5] = 10 mg/kg i.p. + scopolamine, vs scopolamine control
[6] = 10 mg/kg, retention trial, vs scopolamine control

Sequence of serotonin transporter (SERT) (P31645 whole entry, species assumed): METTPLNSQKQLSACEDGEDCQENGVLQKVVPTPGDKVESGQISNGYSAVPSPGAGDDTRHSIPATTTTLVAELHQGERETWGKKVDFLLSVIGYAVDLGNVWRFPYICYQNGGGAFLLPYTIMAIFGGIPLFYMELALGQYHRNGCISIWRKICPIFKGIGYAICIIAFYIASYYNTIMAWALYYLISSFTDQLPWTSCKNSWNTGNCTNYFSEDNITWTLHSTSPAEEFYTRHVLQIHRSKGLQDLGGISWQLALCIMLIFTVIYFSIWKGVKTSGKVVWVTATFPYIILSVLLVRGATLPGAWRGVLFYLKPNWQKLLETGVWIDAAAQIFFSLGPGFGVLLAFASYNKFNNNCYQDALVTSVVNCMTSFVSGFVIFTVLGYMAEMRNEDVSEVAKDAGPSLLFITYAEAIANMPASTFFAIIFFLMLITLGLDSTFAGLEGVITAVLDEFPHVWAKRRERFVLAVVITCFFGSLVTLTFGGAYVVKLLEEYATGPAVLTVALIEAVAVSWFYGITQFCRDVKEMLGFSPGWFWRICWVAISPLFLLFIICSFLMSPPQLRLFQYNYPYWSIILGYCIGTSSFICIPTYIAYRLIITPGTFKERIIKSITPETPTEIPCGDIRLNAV

With O[C@H](CNCC1CC1)[C@H](Cc1ccccc1)NC1c2ccccc2-c2ccccc21 [Compound 6] as the compound, how does the “interaction with SERT” value [1] read?
The value was “ruled out interactions”.

And the IC50 [2]?
The IC50 was 7.76 ± 0.36 µM.

And the Tmax ([3]; ICR-CD1, mouse, brain, ip, 10 mg/kg, read-out: brain Tmax (converted))?
Its Tmax is 0.917 h.

And the Kp ([3]; ICR-CD1, mouse, brain/plasma, ip, 10 mg/kg, read-out: Kp (AUCbrain/AUCplasma), brain-to-plasma ratio)?
The Kp was 11.1.

What about the MRT ([3]; ICR-CD1, mouse, ip, plasma) of the same compound?
Its MRT is 3.62 h.

And the k el ([3]; ICR-CD1, mouse, ip, plasma, read-out: λz (converted))?
Its k el is 7.5e-05 s⁻¹.

What about the Cmax ([3]; ICR-CD1, mouse, plasma, ip, 10 mg/kg) of the same compound?
The Cmax was 430 ± 57.9 ng/mL.

And the half-life ([3]; ICR-CD1, mouse, plasma, ip, 10 mg/kg, plasma, read-out: Half-life)?
Its half-life is 2.69 ± 0.237 h.

What about the Vd/F ([3]; ICR-CD1, mouse, plasma, ip, 10 mg/kg, plasma, read-out: Vss/F) of the same compound?
The Vd/F was 38.2 ± 4.47 L/kg.

What about the Vd/F ([3]; ICR-CD1, mouse, plasma, ip, 10 mg/kg, plasma, read-out: Vz/F) of the same compound?
Its Vd/F is 40.9 ± 4.95 L/kg.

And the Tmax ([3]; ICR-CD1, mouse, plasma, ip, 10 mg/kg, read-out: plasma Tmax (converted))?
Its Tmax is 0.389 h.

And the “brain AUCtotal” value [3]?
The value was 650,923.00 ± 152,288.00 min.ng/g.

What about the “plasma AUCtotal” value [3] of the same compound?
Its value is 58,804.62 ± 3,318.21 min.ng/mL.

And the CL ([3]; plasma)?
Its CL is 170 ± 10 mL/min/kg.

What about the Vz/F ([3]; plasma, 10 mg/kg) of the same compound?
Its Vz/F is ~ 41 L/kg.

What about the half-life ([3]; plasma, 10 mg/kg) of the same compound?
The half-life was ~ 161 min.

What about the “Kp (AUCbrain/AUCplasma), brain-to-plasma ratio” value ([3]; 10 mg/kg) of the same compound?
The value was 11.

And the “brain Cmax” value ([3]; 10 mg/kg)?
Its value is 833.00 ± 62.32 ng/g and 833 ng/g.

And the “plasma Cmax” value ([3]; 10 mg/kg)?
Its value is 430 ng/mL.

And the “latency to target, acquisition trial” value [4, 5]?
Its value is “Statistically significant differences were also observed on day 4; also recorded: statistically significantly reduced latency to target”.

What about the “number of errors, acquisition phase (days 1-4)” value [4, 5] of the same compound?
Its value is “no statistically significant differences in the number of errors”.

And the “number of errors, day 5” value ([4]; 10 mg/kg, drug-off trial)?
The value was “no significant differences among groups”.

And the “latency to former target location, day 12” value [4, 6]?
The value was “A similar effect was noted; also recorded: significantly shortened the latency to former target location”.

And the “number of errors, day 12” value [4, 6]?
Its value is “significantly reduced number of errors made; also recorded: reduced the number of errors”.
